# Test results as given in PubChem BioAssay (NCI).
#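 Results reflect a 48-hour exposure of cells in 96-well plates to compound at five concentrations. Here, GI50 denotes the concentration required for 50% inhibition of growth. TGI: total growth inhibition.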
# Key:
# Assay in all cases: NCI tumour cell line growth inhibition, 48 h
# [1] = test system: NCI-H226 lung
# [2] = test system: HOP-18 NSCLC
# [3] = test system: M14 melanoma
# [4] = test system: SF-295 CNS
# [5] = test system: HL-60(TB) leukemia
# [6] = test system: SW-620 colon
# [7] = test system: HOP-92 NSCLC
# [8] = test system: SF-539 CNS
# [9] = test system: KM12 colon
# [10] = test system: SK-MEL-28 melanoma
# [11] = test system: LOX IMVI melanoma
# [12] = test system: K-562 leukemia
# [13] = test system: EKVX NSCLC
# [14] = test system: SNB-75 CNS
# [15] = test system: SK-MEL-2 melanoma
# [16] = test system: LXFL 529 NSCLC
# [17] = test system: RPMI-8226 leukemia
# [18] = test system: COLO 205 colon
# [19] = test system: CCRF-CEM leukemia
# [20] = test system: TK-10 renal
# [21] = test system: UO-31 renal
# [22] = test system: IGROV1 ovarian
# [23] = test system: HCT-15 colon
# [24] = test system: UACC-257 melanoma
# [25] = test system: ACHN renal
# [26] = test system: SNB-78 CNS
# [27] = test system: SNB-19 CNS
# [28] = test system: DLD-1 colon
# [29] = test system: MALME-3M melanoma
# [30] = test system: A549 NSCLC
# [31] = test system: SN12C renal
# [32] = test system: OVCAR-5 ovarian
# [33] = test system: SK-OV-3 ovarian
# [34] = test system: SR leukemia
# [35] = test system: UACC-62 melanoma
# [36] = test system: RXF 393 renal
# [37] = test system: HCC-2998 colon
# [38] = test system: MOLT-4 leukemia
# [39] = test system: SF-268 CNS
# [40] = test system: NCI-H23 lung
# [41] = test system: 786-0 renal
# [42] = test system: OVCAR-4 ovarian
# [43] = test system: A498 renal
# [44] = test system: KM20L2 colon
# [45] = test system: NCI-H522 lung
# [46] = test system: U251 CNS
# [47] = test system: NCI-H460 lung
# [48] = test system: HOP-62 NSCLC
# [49] = test system: SK-MEL-5 melanoma
# [50] = test system: OVCAR-8 ovarian
# [51] = test system: CAKI-1 renal
# [52] = test system: HCT-116 colon
# [53] = test system: DMS 273 small cell lung
# [54] = test system: HT29 colon
# [55] = test system: OVCAR-3 ovarian
# [56] = test system: M19-MEL melanoma
compound,measurement,setting,value
N.N.N.N.N.N.O=N[O-].[Br-].[Co+3].[Co+3].[OH3+].[OH3+],GI50,[1],> 100 µM
same,TGI,[1],> 100 µM
same,GI50,[2],51.7 µM
same,TGI,[2],> 100 µM
same,GI50,[3],> 100 µM
same,TGI,[3],> 100 µM
same,GI50,[4],> 100 µM
same,TGI,[4],> 100 µM
same,GI50,[5],> 100 µM
same,TGI,[5],> 100 µM
same,GI50,[6],> 100 µM
same,TGI,[6],> 100 µM
same,GI50,[7],> 100 µM
same,TGI,[7],> 100 µM
same,GI50,[8],> 100 µM
same,TGI,[8],> 100 µM
same,GI50,[9],> 100 µM
same,TGI,[9],> 100 µM
same,GI50,[10],> 100 µM
same,TGI,[10],> 100 µM
same,GI50,[11],> 100 µM
same,TGI,[11],> 100 µM
same,GI50,[12],> 100 µM
same,TGI,[12],> 100 µM
same,GI50,[13],74.3 µM
same,TGI,[13],> 100 µM
same,GI50,[14],> 100 µM
same,TGI,[14],> 100 µM
same,GI50,[15],> 100 µM
same,TGI,[15],> 100 µM
same,GI50,[16],> 100 µM
same,TGI,[16],> 100 µM
same,GI50,[17],> 100 µM
same,TGI,[17],> 100 µM
same,GI50,[18],> 100 µM
same,TGI,[18],> 100 µM
same,GI50,[19],> 100 µM
same,TGI,[19],> 100 µM
same,GI50,[20],> 100 µM
same,TGI,[20],> 100 µM
same,GI50,[21],> 100 µM
same,TGI,[21],> 100 µM
same,GI50,[22],> 100 µM
same,TGI,[22],> 100 µM
same,GI50,[23],> 100 µM
same,TGI,[23],> 100 µM
same,GI50,[24],> 100 µM
same,TGI,[24],> 100 µM
same,GI50,[25],> 100 µM
same,TGI,[25],> 100 µM
same,GI50,[26],> 100 µM
same,TGI,[26],> 100 µM
same,GI50,[27],> 100 µM
same,TGI,[27],> 100 µM
same,GI50,[28],> 100 µM
same,TGI,[28],> 100 µM
same,GI50,[29],> 100 µM
same,TGI,[29],> 100 µM
same,GI50,[30],> 100 µM
same,TGI,[30],> 100 µM
same,GI50,[31],> 100 µM
same,TGI,[31],> 100 µM
same,GI50,[32],> 100 µM
same,TGI,[32],> 100 µM
same,GI50,[33],> 100 µM
same,TGI,[33],> 100 µM
same,GI50,[34],> 100 µM
same,TGI,[34],> 100 µM
same,GI50,[35],> 100 µM
same,TGI,[35],> 100 µM
same,GI50,[36],> 100 µM
same,TGI,[36],> 100 µM
same,GI50,[37],58.5 µM
same,TGI,[37],> 100 µM
same,GI50,[38],> 100 µM
same,TGI,[38],> 100 µM
same,GI50,[39],> 100 µM
same,TGI,[39],> 100 µM
same,GI50,[40],> 100 µM
same,TGI,[40],> 100 µM
same,GI50,[41],> 100 µM
same,TGI,[41],> 100 µM
C=C(C=O)CCCC(C)[C@@H]1CCC23CC12CCC1[C@@]2(C)CCC(OC(C)=O)C(C)(C)C2CC(OC2OC(COC(C)=O)C(O)C(O)C2O)[C@]13C (some centres not stated),TGI,[1],12.8 µM
same,TGI,[42],11.1 µM
same,TGI,[43],13.3 µM
same,TGI,[2],16.1 µM
same,TGI,[3],4.57 µM
same,TGI,[44],12.8 µM
same,TGI,[4],11.6 µM
same,TGI,[5],2.04 µM
same,TGI,[45],1.53 µM
same,TGI,[6],1.44 µM
same,TGI,[46],8.56 µM
same,TGI,[47],16.1 µM
same,TGI,[48],14.3 µM
same,TGI,[7],12.4 µM
same,TGI,[49],11.3 µM
same,TGI,[8],11.4 µM
same,TGI,[9],9.53 µM
same,TGI,[10],1.77 µM
same,TGI,[11],1.43 µM
same,TGI,[50],11.1 µM
same,TGI,[12],6.78 µM
same,TGI,[13],13.7 µM
same,TGI,[51],10.9 µM
same,TGI,[14],11.4 µM
same,TGI,[15],13.9 µM
same,TGI,[16],8.44 µM
same,TGI,[17],3.01 µM
same,TGI,[18],14.4 µM
same,TGI,[19],5 µM
same,TGI,[20],12.5 µM
same,TGI,[21],11 µM
same,TGI,[22],7.9 µM
same,TGI,[52],1.43 µM
same,TGI,[23],7.5 µM
same,TGI,[24],11.6 µM
same,TGI,[25],9.78 µM
same,TGI,[26],3.4 µM
same,TGI,[27],13.2 µM
same,TGI,[29],7.17 µM
same,TGI,[30],12.5 µM
same,TGI,[31],5.77 µM
same,TGI,[53],13.3 µM
same,TGI,[32],11.8 µM
same,TGI,[33],12 µM
same,TGI,[35],3.49 µM
same,TGI,[36],11.7 µM
same,TGI,[37],13.9 µM
same,TGI,[54],11.9 µM
same,TGI,[38],3.03 µM
same,TGI,[39],12.3 µM
same,TGI,[40],14.8 µM
same,TGI,[41],13.2 µM
same,TGI,[55],8.21 µM
O=C([CH-]C(=O)C(F)(F)F)c1ccccc1.O=C([CH-]C(=O)C(F)(F)F)c1ccccc1.O=C([CH-]C(=O)C(F)(F)F)c1ccccc1.O=C([CH-]C(=O)C(F)(F)F)c1ccccc1.[Eu+3].c1ccncc1,GI50,[1],15.6 µM
same,TGI,[1],79 µM
same,GI50,[42],7.62 µM
same,TGI,[42],> 100 µM
same,GI50,[43],18.4 µM
same,TGI,[43],88.8 µM
same,GI50,[3],9.52 µM
same,TGI,[3],39.5 µM
same,GI50,[44],26.7 µM
same,TGI,[44],> 100 µM
same,GI50,[4],3.02 µM
same,TGI,[4],31 µM
same,GI50,[5],3.69 µM
same,TGI,[5],13.8 µM
same,GI50,[45],2.8 µM
same,TGI,[45],17.9 µM
same,GI50,[6],11.9 µM
same,TGI,[6],> 100 µM
same,GI50,[46],5.02 µM
same,TGI,[46],> 100 µM
same,GI50,[47],5.62 µM
same,TGI,[47],43.7 µM
same,GI50,[48],8.37 µM
same,TGI,[48],64 µM
same,GI50,[7],9.02 µM
same,TGI,[7],45.6 µM
same,GI50,[49],11.2 µM
same,TGI,[49],> 100 µM
same,GI50,[8],16 µM
same,TGI,[8],92.8 µM
same,GI50,[9],3.08 µM
same,TGI,[9],8.11 µM
same,GI50,[10],14.3 µM
same,TGI,[10],> 100 µM
same,GI50,[56],10 µM
same,TGI,[56],62.8 µM
same,GI50,[11],5.78 µM
same,TGI,[11],21 µM
same,GI50,[50],6.58 µM
same,TGI,[50],> 100 µM
same,GI50,[12],4.66 µM
same,TGI,[12],83 µM
same,GI50,[13],11.4 µM
same,TGI,[13],58.6 µM
same,GI50,[14],6.71 µM
same,TGI,[14],> 100 µM
same,GI50,[16],4.2 µM
same,TGI,[16],> 100 µM
same,GI50,[17],4.19 µM
same,TGI,[17],35.3 µM
same,GI50,[18],28.8 µM
same,TGI,[18],> 100 µM
same,GI50,[19],2.64 µM
same,TGI,[19],32.7 µM
same,GI50,[22],7.88 µM
same,TGI,[22],> 100 µM
same,GI50,[52],7.53 µM
same,TGI,[52],71 µM
same,GI50,[23],4.98 µM
same,TGI,[23],> 100 µM
same,GI50,[24],11.9 µM
same,TGI,[24],55.2 µM
same,GI50,[25],8.71 µM
same,TGI,[25],> 100 µM
same,GI50,[27],4.33 µM
same,TGI,[27],94.8 µM
same,GI50,[28],7.12 µM
same,TGI,[28],> 100 µM
same,GI50,[30],25.6 µM
same,TGI,[30],> 100 µM
same,GI50,[31],3.74 µM
same,TGI,[31],39.7 µM
same,GI50,[53],8.87 µM
same,TGI,[53],> 100 µM
same,GI50,[32],41 µM
same,TGI,[32],> 100 µM
same,GI50,[34],3.86 µM
same,TGI,[34],19.7 µM
same,GI50,[35],6.67 µM
same,TGI,[35],63.3 µM
same,GI50,[36],2.25 µM
same,TGI,[36],18.8 µM
same,GI50,[54],6.97 µM
same,TGI,[54],> 100 µM
same,GI50,[38],4.26 µM
same,TGI,[38],36.2 µM
same,GI50,[39],6.21 µM
same,TGI,[39],59.7 µM
same,GI50,[40],3.7 µM
same,TGI,[40],19.5 µM
same,GI50,[41],11.9 µM
same,TGI,[41],> 100 µM
